# Measurements taken from ChEMBL document CHEMBL6103648, “AI-Driven Discovery of Highly Specific and Efficacious hCES2A Inhibitors for Ameliorating Irinotecan-Triggered Gut Toxicity” (J Med Chem, 2025).
# pIC50: −log10 of the molar value. The source made the active and inactive calls. No cut-off for these calls is given here.
# Legend:
# [1] = Efflux ratio of apparent permeability across basal to apical side over apical to basal side in human Caco-2 cells at 100 uM incubated for 120 mins by UPLC-MS/MS analysis; assay type: ADME, cell-based
# Mus musculus [2] = assay: Inhibition of irinotecan-triggered gut toxicity in C57BL/6J mouse bearing tumor cells assessed as increase in ZO-1 level in colon tissue at 25 to 50 mg/kg/day, po treated for 14 days by immunofluorescence based analysis; assay type: functional, organism-based; conditions: dose 25-50 mg/kg/day, time 14.0 day
# [3] = Sub-acute toxicity in C57BL/6J mouse assessed as change in TP level at 100 mg/kg/day, po treated for 14 days consecutively; assay type: organism-based; conditions: in vivo, 336 h, time 14 day
# [4] = Permeability across basal to apical side in human Caco-2 cells assessed as cumulative penetration amount at 25 uM incubated for 120 mins by UPLC-MS/MS analysis; assay type: ADME, cell-based; conditions: caco-2, 2 h
# [5] = Inhibition of human CES1A using NLMe as substrate incubated for 3 mins by chemiluminescence analysis
# Cytochrome P450 2C19 = Cytochrome P450 2C19 (Homo sapiens, UniProt P33261); assay: Inhibition of CYP2C19 in human liver microsomes using omeprazole as substrate upto 10 uM; assay type: ADME, Microsome
# Mus musculus [6] = assay: Inhibition of irinotecan-triggered gut toxicity in C57BL/6J mouse bearing tumor cells assessed as intact structures in colon tissue at 25 to 50 mg/kg/day, po treated for 14 days by H and E staining based analysis; assay type: functional, organism-based; conditions: dose 25-50 mg/kg/day, time 14.0 day
# [7] = Inhibition of human CES2A incubated for 3 mins
# [8] = Apparent permeability across apical to basal side in human Caco-2 cells at 50 uM incubated for 120 mins by UPLC-MS/MS analysis; assay type: ADME, cell-based
# Acetylcholinesterase = Acetylcholinesterase (Homo sapiens, UniProt P22303); assay: Inhibition of human AChE using ATCI as substrate incubated for 3 mins by Ellman's method
# Dipeptidyl peptidase 4 = Dipeptidyl peptidase 4 (Homo sapiens, UniProt P27487); assay: Inhibition of human serum DPP-IV using GP-BAN as substrate preincubated for 3 mins followed by substrate addition by fluorescence based assay
# [9] = target: T1, Palmitoleoyl-protein carboxylesterase NOTUM (Homo sapiens, UniProt Q6P988); assay: Inhibition of human Notum using OPTS as substrate preincubated for 1 min followed by substrate addition by fluorescence based assay
# T1 sequence (Q6P988 whole entry): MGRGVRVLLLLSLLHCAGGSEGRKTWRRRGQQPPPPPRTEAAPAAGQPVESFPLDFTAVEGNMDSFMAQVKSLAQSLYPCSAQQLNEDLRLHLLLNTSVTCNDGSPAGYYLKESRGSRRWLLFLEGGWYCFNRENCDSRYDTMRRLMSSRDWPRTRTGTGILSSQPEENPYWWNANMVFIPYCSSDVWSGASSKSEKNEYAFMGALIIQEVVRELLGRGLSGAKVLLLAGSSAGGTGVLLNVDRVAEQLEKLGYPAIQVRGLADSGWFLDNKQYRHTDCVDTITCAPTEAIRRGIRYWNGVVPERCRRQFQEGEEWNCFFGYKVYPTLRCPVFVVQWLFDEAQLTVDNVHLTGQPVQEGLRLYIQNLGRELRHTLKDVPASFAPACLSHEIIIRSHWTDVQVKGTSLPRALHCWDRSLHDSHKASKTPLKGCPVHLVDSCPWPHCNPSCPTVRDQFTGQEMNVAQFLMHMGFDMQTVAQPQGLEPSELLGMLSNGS
# [10] = Sub-acute toxicity in C57BL/6J mouse assessed as abnormality in kidney at 100 mg/kg/day, po treated for 14 days consecutively by H and E staining based analysis; assay type: organism-based; conditions: in vivo, 336 h, time 14 day
# Mus musculus [11] = assay: Inhibition of irinotecan-triggered gut toxicity in C57BL/6J mouse bearing tumor cells assessed as decrease in TNF-alpha level in colon tissue administered orally treated for 14 days; assay type: functional, organism-based; conditions: dose 25-50 mg/kg/day, route po, time 14.0 day
# [12] = Inhibition of human CES2A incubated for 33 mins
# Cytochrome P450 1A2 = target: T2, Cytochrome P450 1A2 (Homo sapiens, UniProt P05177); assay: Inhibition of CYP1A2 in human liver microsomes using phenacetin as substrate upto 10 uM; assay type: ADME, Microsome
# T2 sequence (P05177 whole entry): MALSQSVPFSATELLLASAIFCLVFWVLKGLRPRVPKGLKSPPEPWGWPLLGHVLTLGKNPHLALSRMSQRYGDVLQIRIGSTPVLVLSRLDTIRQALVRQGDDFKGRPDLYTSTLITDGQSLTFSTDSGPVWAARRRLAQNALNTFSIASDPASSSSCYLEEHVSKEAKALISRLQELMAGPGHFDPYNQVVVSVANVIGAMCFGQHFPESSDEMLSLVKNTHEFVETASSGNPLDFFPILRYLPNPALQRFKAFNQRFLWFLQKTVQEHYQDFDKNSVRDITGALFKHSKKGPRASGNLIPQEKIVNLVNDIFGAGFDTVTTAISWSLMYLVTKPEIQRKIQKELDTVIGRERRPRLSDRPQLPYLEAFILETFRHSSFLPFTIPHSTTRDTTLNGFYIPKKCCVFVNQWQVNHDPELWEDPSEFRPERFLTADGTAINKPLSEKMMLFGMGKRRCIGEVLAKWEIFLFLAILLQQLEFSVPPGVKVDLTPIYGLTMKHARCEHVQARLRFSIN
# Homo sapiens [13] = organism: Homo sapiens; assay: Irreversible inhibition of human CES2A measured after 12 hrs by dialysis assay
# Mus musculus [14] = assay: Inhibition of irinotecan-triggered gut toxicity in C57BL/6J mouse bearing tumor cells assessed as decrease in DAI score at 25 to 50 mg/kg/day, po treated for 14 days; assay type: functional, organism-based; conditions: dose 25-50 mg/kg/day, time 14.0 day
# [15] = Sub-acute toxicity in C57BL/6J mouse assessed as abnormality in stomach at 100 mg/kg/day, po treated for 14 days consecutively by H and E staining based analysis; assay type: organism-based; conditions: in vivo, 336 h, time 14 day
# Homo sapiens [16] = organism: Homo sapiens; assay: Inhibition of human CES2A assessed as decrease in residual activity measured upto 30 mins; conditions: dose <= 1.6 nM
# [17] = Permeability across apical to basal side in human Caco-2 cells assessed as cumulative penetration amount at 100 uM incubated for 120 mins by UPLC-MS/MS analysis; assay type: ADME, cell-based; conditions: caco-2, 2 h
# [18] = Drug distribution in serum of C57BL/6J mouse at 100 mg/kg, po administered as single dose measured for 0.5 to 3 hrs by UHPLC-Q-Orbitrap HRMS analysis; assay type: ADME, organism-based; conditions: in vivo, time 0.5-3 hrs
# [19] = Drug distribution in deep organs of C57BL/6J mouse at 100 mg/kg, po administered as single dose measured for 0.5 to 3 hrs by UHPLC-Q-Orbitrap HRMS analysis; assay type: ADME, organism-based, Deep organ; conditions: in vivo, time 0.5-3 hrs
# Mus musculus [20] = assay: Inhibition of irinotecan-triggered gut toxicity in C57BL/6J mouse bearing tumor cells assessed as decrease in serum AST level at 25 to 50 mg/kg/day, po treated for 14 days; assay type: functional, organism-based; conditions: dose 25-50 mg/kg/day, time 14.0 day
# [21] = Drug distribution in ileum of C57BL/6J mouse at 100 mg/kg, po administered as single dose measured for 0.5 to 3 hrs by UHPLC-Q-Orbitrap HRMS analysis; assay type: ADME, organism-based; conditions: in vivo, time 0.5-3 hrs
# Mus musculus [22] = assay: Inhibition of irinotecan-induced anti-tumor activity in C57BL/6J mouse bearing tumor cells assessed as increase in tumor weight at 25 to 50 mg/kg/day, po treated for 14 days; assay type: functional, organism-based; conditions: dose 25-50 mg/kg/day, time 14.0 day
# Sequence of Dipeptidyl peptidase 4 (P27487 whole entry): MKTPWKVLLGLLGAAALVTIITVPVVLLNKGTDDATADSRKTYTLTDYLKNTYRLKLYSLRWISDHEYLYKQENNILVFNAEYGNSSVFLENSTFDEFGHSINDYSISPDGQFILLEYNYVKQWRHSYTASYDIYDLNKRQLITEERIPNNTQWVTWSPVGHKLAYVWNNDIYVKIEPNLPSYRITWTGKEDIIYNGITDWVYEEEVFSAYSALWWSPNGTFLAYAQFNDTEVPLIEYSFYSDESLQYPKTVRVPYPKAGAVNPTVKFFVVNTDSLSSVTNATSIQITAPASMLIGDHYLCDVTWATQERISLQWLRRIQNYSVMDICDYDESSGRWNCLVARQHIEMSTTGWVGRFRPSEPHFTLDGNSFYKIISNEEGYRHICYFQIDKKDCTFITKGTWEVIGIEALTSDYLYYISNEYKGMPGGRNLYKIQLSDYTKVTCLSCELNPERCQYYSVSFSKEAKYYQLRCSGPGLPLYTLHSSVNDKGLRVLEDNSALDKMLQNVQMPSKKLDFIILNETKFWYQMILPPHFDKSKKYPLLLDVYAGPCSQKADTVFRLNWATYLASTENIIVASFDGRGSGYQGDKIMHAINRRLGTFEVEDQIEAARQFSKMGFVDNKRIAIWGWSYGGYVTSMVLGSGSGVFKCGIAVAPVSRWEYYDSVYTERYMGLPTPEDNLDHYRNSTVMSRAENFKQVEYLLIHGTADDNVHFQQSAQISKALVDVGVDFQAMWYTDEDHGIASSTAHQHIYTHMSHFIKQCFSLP
# Sequence of Acetylcholinesterase (P22303 whole entry): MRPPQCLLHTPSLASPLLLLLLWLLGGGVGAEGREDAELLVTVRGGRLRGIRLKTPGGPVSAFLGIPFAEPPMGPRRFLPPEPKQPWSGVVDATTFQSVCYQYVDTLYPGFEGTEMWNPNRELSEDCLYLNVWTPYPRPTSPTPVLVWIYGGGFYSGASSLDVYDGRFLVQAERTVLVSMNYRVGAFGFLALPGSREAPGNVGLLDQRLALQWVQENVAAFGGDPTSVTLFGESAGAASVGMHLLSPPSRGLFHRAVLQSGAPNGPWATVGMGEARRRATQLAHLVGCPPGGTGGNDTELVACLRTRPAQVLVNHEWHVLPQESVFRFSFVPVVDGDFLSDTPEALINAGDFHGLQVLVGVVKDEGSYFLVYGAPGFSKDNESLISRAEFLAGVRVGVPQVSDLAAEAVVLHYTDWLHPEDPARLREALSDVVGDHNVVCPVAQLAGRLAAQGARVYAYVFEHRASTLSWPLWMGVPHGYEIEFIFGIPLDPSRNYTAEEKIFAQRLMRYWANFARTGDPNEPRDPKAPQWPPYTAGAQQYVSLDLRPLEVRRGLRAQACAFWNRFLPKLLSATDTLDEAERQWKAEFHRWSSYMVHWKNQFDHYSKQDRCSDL
# Sequence of Cytochrome P450 2C19 (P33261 whole entry): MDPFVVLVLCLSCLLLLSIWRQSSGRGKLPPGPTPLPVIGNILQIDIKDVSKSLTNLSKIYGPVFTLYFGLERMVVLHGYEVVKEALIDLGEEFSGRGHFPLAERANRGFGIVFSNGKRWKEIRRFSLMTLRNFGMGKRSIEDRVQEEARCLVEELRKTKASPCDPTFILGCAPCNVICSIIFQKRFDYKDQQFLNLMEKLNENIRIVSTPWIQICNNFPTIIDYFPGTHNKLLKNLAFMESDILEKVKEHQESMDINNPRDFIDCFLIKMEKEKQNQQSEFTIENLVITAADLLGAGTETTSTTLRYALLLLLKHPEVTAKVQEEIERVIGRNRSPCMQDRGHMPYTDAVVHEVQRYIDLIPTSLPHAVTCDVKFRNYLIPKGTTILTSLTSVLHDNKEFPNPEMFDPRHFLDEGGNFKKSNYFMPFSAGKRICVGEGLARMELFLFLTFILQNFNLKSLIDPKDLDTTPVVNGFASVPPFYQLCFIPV
compound,measurement,setting,value
CCN(C)C(=O)Oc1ccc(C(=O)N2CCC(Cc3ccccc3)CC2)cc1OC,"efflux ratio at 2 h, 100 µM",[1],0.66
same,inhibition,Mus musculus [2],Active
same,Activity,[3],Non-toxic
same,Activity,[4],2.03 µM
same,pIC50,[5],5.36
same,inhibition (INH),Cytochrome P450 2C19,Not_active
same,inhibition,Mus musculus [6],Active
same,pIC50,[7],9.16
same,"Papp A→B at 2 h, 50 µM",[8],15.6 ×10⁻⁶ cm/s
same,pIC50,Acetylcholinesterase,< 5.00
same,pIC50,Dipeptidyl peptidase 4,< 5.00
same,pIC50,[9],< 5.00
same,Activity,[10],Non-toxic
same,inhibition,Mus musculus [11],Active
same,pIC50,[12],10.40
same,inhibition (INH),Cytochrome P450 1A2,Not_active
same,inhibition,Homo sapiens [13],Active
same,inhibition,Mus musculus [14],Active
same,Activity,[15],Non-toxic
same,inhibition,Homo sapiens [16],Dose-dependent-effect
same,Activity,[17],9.47 µM
same,Drug uptake,[18],Not_active
same,Drug uptake,[19],Not_active
same,inhibition,Mus musculus [20],Active
same,Drug uptake,[21],Active
same,inhibition,Mus musculus [22],inactive
